For data set [1], the system named is Clostridium perfringens (ATCC 13124). The class given is cell-based.
The subject of data set [2] is human (Caco-2 and T84) and pig (IPEC-J2) intestinal cells.
Data set [3] concerns Caco-2 cells (ATCC HTB-37). The experiment in a line: cells. The class given is cell-based, human. The conditions noted are these: read-out: IC50 (concentration causing 50% cell death).
In the next data set the test system is T84 cells (ATCC CCL-248). Nature of the data set: cells. The conditions noted are these: read-out: IC50 (concentration causing 50% cell death). It counts as cell-based, human.
Data set [4] concerns Escherichia coli (ATCC 8739). It counts as cell-based.
For data set [5], the system named is Staphylococcus aureus (ATCC 6538P). It counts as cell-based.
The test system of data set [6] is Pseudomonas aeruginosa (CIP 107398). It counts as cell-based.
For another data set, the system named is IPEC-J2 cells. Nature of the data set: cells. The class given is cell-based, pig. The settings on record: read-out: IC50 (concentration causing 50% cell death).
Data set [7] has as its system Bacillus subtilis (DSM 347). It counts as cell-based.
Data set [8] has as its system Enterococcus faecalis (DSM 13591). Nature of the data set: microbe, parasite or virus in culture. The class given is cell-based.
Data set [9] relates to Candida albicans (DSM 10697). It counts as cell-based.
Data set [10] has as its system Clostridium perfringens (ATCC 13124).
In data set [11] the test system is Lactobacillus acidophilus (DSM 20079). Nature of the data set: microbe, parasite or virus in culture. It counts as cell-based.
The test system of data set [12] is Helicobacter pylori (ATCC 43504). The experiment in a line: microbe, parasite or virus in culture. The class given is cell-based.
Data set [13] relates to Klebsiella variicola (DSM 15968). It counts as cell-based.
Data set [14] concerns Bacteroides thetaioataomicron (DSM 2255). Nature of the data set: microbe, parasite or virus in culture. It counts as cell-based.
The subject of data set [15] is Aspergillus ochraceus (DSM 824). It counts as cell-based.
Data set [16] concerns Clostridium perfringens strain (ATCC 13124) and clinical strains of Clostridium perfringens. It counts as cell-based.
Data set [17] relates to Klebsiella pneumoniae (DSMZ 26371). It counts as cell-based.
Data set [18] deals with Lactococcus lactis (DSM 20481). It counts as cell-based.
Data set [19] concerns Clostridium perfringens (ATCC 13124). The class given is cell-based. The source holds these as a separate data set.
Data set [20] relates to Aspergillus niger (ATCC 9142). The class given is cell-based.
For data set [21], the system named is Streptococcus thermophilus (ATCC LMD-9). Nature of the data set: microbe, parasite or virus in culture. The class given is cell-based.
For the next data set, the system named is Bacillus cereus (DSM 31). The class given is cell-based.
Data set [22] concerns Staphylococcus aureus MRSA USA300 (ATCC BAA-1717). The class given is cell-based.
For data set [23], the system named is Clostridium botulinum (DSM 1985). The experiment in a line: microbe, parasite or virus in culture. The class given is cell-based.
For data set [24], the system named is Fusarium graminearum (DSM 1095). It counts as cell-based.
Data set [25] deals with Shigella flexneri (ATCC 12022). The class given is cell-based.
For data set [26], the system named is Mycobacterium smegmatis (ATCC 700084). It counts as cell-based.
For data set [27], the system named is Micrococcus luteus (DSM 20030). The class given is cell-based.
In data set [28] the test system is Penicillium verrucosum (DSM 12639). It counts as cell-based.
The subject of data set [29] is Clostridium propionicum (DSM 6251). The experiment in a line: microbe, parasite or virus in culture. It counts as cell-based.
Data set [30] deals with Acinetobacter baumannii (CIP 110431). It counts as cell-based.
Data set [31] concerns Clostridium coccoides (DSM 935). Nature of the data set: microbe, parasite or virus in culture. The class given is cell-based.
Data set [32] concerns Propionibacterium acnes (ATCC 6919). The experiment in a line: microbe, parasite or virus in culture. The class given is cell-based.
For data set [33], the system named is Clostridium nexile (DSM 1787). Nature of the data set: microbe, parasite or virus in culture. It counts as cell-based.
The test system of data set [34] is Citrobacter farmeri (ATCC 51633). It counts as cell-based.
The test system of data set [35] is Citrobacter rodentium (ATCC 51116). The class given is cell-based.
The test system of data set [36] is Salmonella enterica (CIP 80.39). It counts as cell-based.
In data set [37] the test system is Clostridium difficile (DSM 1296). The experiment in a line: microbe, parasite or virus in culture. It counts as cell-based.
Data set [38] concerns Streptococcus pyogenes (DSM 20565). Nature of the data set: microbe, parasite or virus in culture. The class given is cell-based.
For data set [39], the system named is Aspergillus flavus (DSM 1959). The class given is cell-based.
In data set [40] the test system is Fusarium oxysporum (DSM 62316). The class given is cell-based.
Data set [41] relates to Listeria monocytogenes (DSM 20600). It counts as cell-based.
The subject of data set [42] is Clostridium perfringens (ATCC13124). The class given is cell-based.
The subject of data set [43] is Fusarium verticillioides (DSM 62264). The class given is cell-based.
In data set [44] the test system is Arthrobacter gandavensis (DSM 2447). It counts as cell-based.

≈ marks a conversion by molar mass, not a printed value. Like-named read-outs stand apart in the source and are kept apart here.

As to `O=C(N[C@H](CO)[C@H](O)c1ccc([N+](=O)[O-])cc1)C(Cl)Cl` [Chloramphenicol], the “morphological phenotype (mechanism of action)” value in [1] (5 times MIC, 2 hours, FM4-64FX and DAPI labelling) is given as “hypercondensation of bacterial DNA”.
For Enniatin A1, in data set [2], the “toxicity to intestinal cells” value is on record as “toxic”. Moreover, the IC50 in [3] was determined as 3.1 µM; in the data set with T84 cells (ATCC CCL-248), 4.5 µM; in the data set with IPEC-J2 cells it was 5.1 µM. Besides, the MIC was greater than 100 µM in [4]; 25 µM in data set [5]; greater than 100 µM in data set [6]; 25 µM in data set [7]; 6.25 µM in data set [8]; 3.125 µM in [9]. Further, the MIC in data set [10] was 6.25 µM. Also, in data set [10], the “MIC (mg/L)” value was 4.16 mg/L.
For the molecule Destruxin A, the MIC in data set [11], in data set [12], in data set [13], in data set [14], in [15] and in data set [17] was greater than 100 µM throughout. Moreover, the MIC (in [18]; in data set [4]; in data set [20]; in data set [21]; with Bacillus cereus (DSM 31); in [22]) was greater than 100 µM throughout. For the same molecule, the MIC in data set [23], in data set [24], in data set [25], in data set [26], in data set [27] and in [5] was greater than 100 µM in each case. Moreover, the MIC in data set [28], in [6], in [29], in [30], in data set [31] and in data set [32] was greater than 100 µM each time. Further, the MIC in [33], in data set [34], in data set [35], in [36], in [37] and in data set [38] was greater than 100 µM each time. For the same molecule, the MIC in data set [7], in data set [8], in data set [39], in [40], in data set [9] and in [41] was greater than 100 µM each time. Moreover, the MIC in data set [43] and in data set [44] was greater than 100 µM throughout. The “minimum bactericidal concentrations (BMC values)” value in data set [16] was “identical to the MIC values”. Further, the “toxicity to intestinal cells” value in data set [2] was “not toxic”. Moreover, the IC50 (in data set [3]; in the data set with T84 cells (ATCC CCL-248); in the data set with IPEC-J2 cells) was greater than 100 µM throughout. In data set [1], the “morphological phenotype (mechanism of action)” value is reported as “hypercondensation of bacterial DNA”. In [19], the “permeabilisation of the bacterial membrane” value is reported as “no permeabilisation”. Moreover, the “MIC (mg/L)” value in [10] worked out at 0.86 mg/L. The “change of MIC during exposure” value in data set [42] was “do not change or change only slightly”.
As for `CCCCCCCCCC(=O)N[C@@H](Cc1c[nH]c2ccccc12)C(=O)N[C@H](CC(N)=O)C(=O)N[C@@H](CC(=O)O)C(=O)N[C@@H]1C(=O)NCC(=O)N[C@@H](CCCN)C(=O)N[C@@H](CC(=O)O)C(=O)N[C@H](C)C(=O)N[C@@H](CC(=O)O)C(=O)NCC(=O)N[C@H](CO)C(=O)N[C@@H]([C@H](C)CC(=O)O)C(=O)N[C@@H](CC(=O)c2ccccc2N)C(=O)O[C@@H]1C` [Daptomycin], in data set [10] (ATCC 13124), the MIC came to 8 µM (≈ 13 µg/mL) and the “MIC (mg/L)” value was found to be 12.96 mg/L (≈ 8 µM).
On to Bafilomycin B1, for which the MIC is 10 µM in data set [11]; greater than 100 µM in data set [12]; greater than 100 µM in [13]; greater than 100 µM in data set [14]; 6.25 µM in data set [15]; greater than 100 µM in data set [17]. Moreover, the MIC in [18] was 50 µM; in [4] it was greater than 100 µM; in data set [20] it was 100 µM; in data set [21], 30 µM; in the data set with Bacillus cereus (DSM 31), 25 µM; in data set [22], 20 µM. Also, the MIC in data set [23] is 30 µM; in data set [24], 25 µM; in data set [25] it was greater than 100 µM; in data set [26], greater than 100 µM; in [27] it was 25 µM; in data set [5], 10 µM. For the same molecule, the MIC was 6.25 µM in [28]; greater than 100 µM in data set [6]; 25 µM in [29]; greater than 100 µM in data set [30]; 30 µM in data set [31]; 60 µM in data set [32]. Moreover, the MIC in data set [33] is 60 µM; in data set [34] it was greater than 100 µM; in [35] it was greater than 100 µM; in data set [36] it was greater than 100 µM; in [37], greater than 100 µM; in [38], 20 µM. Besides, the MIC in data set [7] stood at 20 µM; in [8] it was 40 µM; in data set [39] it was 3.25 µM; in [40] it was 50 µM; in data set [9], 100 µM; in data set [10] it was 10 µM. For the same molecule, the MIC in data set [41] came out at 50 µM; in [43], 50 µM; in data set [44], 3 µM. The “MIC (mg/L)” value in data set [10] was found to be 8.15 mg/L.

(Values after patent US20220133842A1 (priority 2019, published 2022).)
